Data: publication PMC11956017, “Design of Benzyl-triazolopyrimidine-Based NADPH Oxidase Inhibitors Leads to the Discovery of a Potent Dual Covalent NOX2/MAOB Inhibitor” (Journal of Medicinal Chemistry, 2025)

Columns and labels:
human NOX1 = target: T1, human NOX1 (Homo sapiens, UniProt Q9Y5S8); experiment: Human NOX1 isolated membranes, Amplex Red/horseradish peroxidase coupled assay; assay type: biochemical; details: membrane-embedded; 40 μM NADPH; read-out: IC50 on human NOXs, NOX1 (AMPLEX RED)
T1 construct: expressed in transfected cells; host or cells: HEK293 F cells, transient transfection (pEG BacMam vector); isolated membranes; Cytosolic proteins made in E. coli
T1 sequence (Q9Y5S8 1-564): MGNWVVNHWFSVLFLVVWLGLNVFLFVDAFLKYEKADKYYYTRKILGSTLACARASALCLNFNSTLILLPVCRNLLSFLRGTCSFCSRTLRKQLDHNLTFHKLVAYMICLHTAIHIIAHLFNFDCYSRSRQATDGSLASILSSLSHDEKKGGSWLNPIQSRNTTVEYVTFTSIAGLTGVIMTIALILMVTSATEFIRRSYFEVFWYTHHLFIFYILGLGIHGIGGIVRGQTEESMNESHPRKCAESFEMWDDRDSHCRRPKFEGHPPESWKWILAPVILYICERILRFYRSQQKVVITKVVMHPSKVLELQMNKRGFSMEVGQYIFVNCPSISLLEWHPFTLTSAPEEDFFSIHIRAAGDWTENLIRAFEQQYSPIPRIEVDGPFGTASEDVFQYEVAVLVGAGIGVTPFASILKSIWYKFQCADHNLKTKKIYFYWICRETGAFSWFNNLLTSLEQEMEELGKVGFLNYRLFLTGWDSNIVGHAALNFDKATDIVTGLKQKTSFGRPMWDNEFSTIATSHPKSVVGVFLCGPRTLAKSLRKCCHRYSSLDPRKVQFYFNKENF
T1 sequence (P13498 1-195 partner): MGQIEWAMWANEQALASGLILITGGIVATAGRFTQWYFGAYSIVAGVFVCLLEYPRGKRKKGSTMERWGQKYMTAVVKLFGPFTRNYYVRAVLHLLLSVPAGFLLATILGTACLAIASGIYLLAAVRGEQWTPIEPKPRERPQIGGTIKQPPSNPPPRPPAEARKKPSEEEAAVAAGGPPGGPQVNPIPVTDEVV
Experimental: (§1) Activity assays for IC50 determinations were performed as previously described[40],[42] with modifications for covalent inhibitors. […] The estimated final protein concentrations based on the heme’s absorbance (ε414 nm = 131,000 M^–1 cm^–1) were 10–20 nM. Compounds were incubated for 1 h at 25 °C at varying concentrations, and reactions were initiated with 40 μM NADPH. Fluorescence was measured using a ClarioStar plate reader (excitation 572 nm/emission 583 nm).

NOX2 = NOX2 (Homo sapiens, UniProt P04839); experiment: Human NOX2 isolated membranes, MCLA assay; assay type: biochemical; design: NOX2 was expressed as native protein in X-CGD PLB-985 cells transduced with the RD114 pseudotyped MFGS-NOX2 vector; expressed in transfected cells; host or cells: X-CGD PLB-985 cells transduced with MFGS-NOX2; isolated membranes; Cytosolic proteins made in E. coli; details: membrane-embedded; 240 μM NADPH; read-out: IC50 on human NOXs, NOX2 (MCLA)
Experimental: IC50 determinations were performed as described, with the same aforementioned modifications for covalent inhibition. Briefly, 20 μg of NOX2-p22^phox membranes was added to a reaction mix with a 65 mM sodium phosphate buffer (pH 7.0), 0.5 μM FAD, 130 μM LiDS, 160 nM p67^phox, p47^phox, Rac1 Q61L, and 1 μM MCLA or 200 μM bovine cytochrome c. The estimated final protein concentration based on the heme’s absorbance was 60 nM. Compounds were incubated for 1 h at 25 °C, at varying concentrations. The reaction started by adding 240 μM NADPH, and measurements were taken by using a GloMax plate reader (Promega; MCLA) or a Cary 100 UV–vis spectrophotometer (Varian; cytochrome c).

human NOX4 = target: T2, human NOX4 (Homo sapiens, UniProt Q9NPH5); experiment: Human NOX4 isolated membranes, Amplex Red/horseradish peroxidase coupled assay; assay type: biochemical; details: membrane-embedded; 40 μM NADPH; read-out: IC50 on human NOXs, NOX4 (AMPLEX RED)
T2 construct: expressed in transfected cells; host or cells: HEK293 F cells, transient transfection (pTT22 and pYD7 vectors); isolated membranes
T2 sequence (Q9NPH5 1-578): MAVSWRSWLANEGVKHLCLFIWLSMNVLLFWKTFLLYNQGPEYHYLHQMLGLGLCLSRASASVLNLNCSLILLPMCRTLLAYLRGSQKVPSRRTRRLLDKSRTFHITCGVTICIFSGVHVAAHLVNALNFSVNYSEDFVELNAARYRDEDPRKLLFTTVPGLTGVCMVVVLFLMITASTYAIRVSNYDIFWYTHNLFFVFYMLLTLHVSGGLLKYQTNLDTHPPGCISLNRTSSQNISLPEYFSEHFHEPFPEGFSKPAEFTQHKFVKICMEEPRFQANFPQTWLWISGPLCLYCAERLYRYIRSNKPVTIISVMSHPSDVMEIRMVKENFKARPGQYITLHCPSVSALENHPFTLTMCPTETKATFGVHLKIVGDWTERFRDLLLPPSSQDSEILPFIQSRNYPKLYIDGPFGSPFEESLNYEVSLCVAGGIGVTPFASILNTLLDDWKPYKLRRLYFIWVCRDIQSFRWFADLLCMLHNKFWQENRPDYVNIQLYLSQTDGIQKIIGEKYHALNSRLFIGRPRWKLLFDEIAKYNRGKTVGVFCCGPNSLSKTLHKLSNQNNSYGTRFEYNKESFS
T2 sequence (P13498 1-195 partner): T1 sequence (P13498 1-195 partner)
Experimental: as §1

human NOX5 = target: T3, human NOX5 (Homo sapiens, UniProt Q96PH1); experiment: Human NOX5 isolated membranes, Amplex Red/horseradish peroxidase coupled assay; assay type: biochemical; details: membrane-embedded; 40 μM NADPH; read-out: IC50 on human NOXs, NOX5 (AMPLEX RED)
T3 construct: expressed in transfected cells; host or cells: HEK293 F cells, transient transfection (pEG BacMam vector); isolated membranes
T3 sequence (Q96PH1 1-719 isoform Q96PH1-4): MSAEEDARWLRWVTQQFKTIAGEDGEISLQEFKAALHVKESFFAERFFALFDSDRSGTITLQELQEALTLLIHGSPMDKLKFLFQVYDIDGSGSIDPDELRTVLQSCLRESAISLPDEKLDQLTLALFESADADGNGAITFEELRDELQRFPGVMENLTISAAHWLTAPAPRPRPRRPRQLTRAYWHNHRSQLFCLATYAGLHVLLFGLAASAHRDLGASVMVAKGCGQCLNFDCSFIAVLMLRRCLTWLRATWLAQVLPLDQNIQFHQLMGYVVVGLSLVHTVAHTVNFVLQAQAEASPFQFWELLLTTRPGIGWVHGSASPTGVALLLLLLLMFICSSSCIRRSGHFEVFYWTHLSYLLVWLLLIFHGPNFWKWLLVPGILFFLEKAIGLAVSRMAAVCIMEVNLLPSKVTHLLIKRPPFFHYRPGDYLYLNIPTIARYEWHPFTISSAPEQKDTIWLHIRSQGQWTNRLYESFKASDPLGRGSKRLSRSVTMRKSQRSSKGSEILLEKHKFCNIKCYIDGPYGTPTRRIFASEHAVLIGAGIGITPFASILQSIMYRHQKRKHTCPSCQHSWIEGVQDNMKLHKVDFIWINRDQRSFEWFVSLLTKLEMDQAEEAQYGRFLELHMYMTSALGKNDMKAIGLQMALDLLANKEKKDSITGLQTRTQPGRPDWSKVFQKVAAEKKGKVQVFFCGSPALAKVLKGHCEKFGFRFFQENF
Experimental: as §1

csNOX5 dehydrogenase = experiment: Intact protein mass spectrometry of csNOX5 dehydrogenase; assay type: binding, Cylindrospermum stagnale; details: intact protein ESI-qTOF-HRMS
Experimental: Approximately 1 mg mL^-1 protein was incubated with 300 μM FAD and 1 mM 9a at 4 °C for 1 h. A negative control reaction was performed by adding an equal volume of DMSO. Protein was denatured by adding 1% (v/v) formic acid. Chromatographic separation and mass spectrometry analysis were carried out as previously reported.[10] Analyses were carried out by ESI-qTOF-HRMS on an […] qTOF system (Sciex) embedding a Twin Sprayer ESI probe and coupled with an ExcionLC system (Sciex) controlled by SciexOS software v. 3.0.0. The injection volume was 10 μL (10 μg), and chromatographic separation was carried out with a bioZen WidePore C4 column (a 100 mm length, a 2.1 mm diameter, and a 2.6 μm particle size; Phenomenex).

[1] = test system: dehydrogenase domain of csNOX5; experiment: NADPH depletion assay on csNOX5 dehydrogenase domain; assay type: biochemical, Cylindrospermum stagnale; details: 10 μM inhibitor; 1 μM purified protein, 250 μM NADPH
Experimental: A series of derivatives were synthesized and tested at 10 μM against the dehydrogenase domain of NOX5 from Cylindrospermum stagnale (C. stagnale, CsNOX5; Figure 2B).
The NADPH depletion assay for IC50 determinations was performed as described[10] with modifications for covalent inhibitors, which require longer incubation times. Briefly, the catalytic activity was measured by monitoring the absorbance at 340 nm with a Cary 100 UV–vis spectrophotometer (Varian). A 1 μM portion of purified protein was added in a final volume of 130 μL of 50 mM HEPES pH 7.5 and supplemented with 300 μM FAD. Inhibitors were added at varying concentrations and incubated for 1 h at 25 °C.

IC50 (human NOX1)	IC50 (NOX2)	IC50 (human NOX4)	IC50 (human NOX5)	% INHIBITION csNOX5 DEHYDROGENASE DOMAIN [1]	Structure (SMILES)	covalent binding to csNOX5 dehydrogenase active-site cysteine (csNOX5 dehydrogenase)
> 100 µM	12.9 ± 2.2 µM	> 100 µM	14.3 ± 5.9 µM		CN(Cc1ccccc1)Cc1ccc(Cn2nnc3c(Sc4nc5ccccc5o4)ncnc32)cc1 [Compound 9c, N-(4-((7-(Benzo[d]oxazol-2-ylthio)-3H-[1,2,3]triazolo[4,5-d]pyrimidin-3-yl)methyl)benzyl)-N-methyl-1-phenylmethanamine]	
> 100 µM	8.1 ± 0.2 µM	> 100 µM	4.72 ± 3.7 µM		c1ccc2oc(Sc3ncnc4c3nnn4Cc3ccc(CN4CCCCC4)cc3)nc2c1 [Compound 9d, 2-((3-(4-(Piperidin-1-ylmethyl)benzyl)-3H-[1,2,3]triazolo[4,5-d]pyrimidin-7-yl)thio)benzo[d]oxazole]	
> 100 µM	> 100 µM	> 100 µM	> 100 µM		CCCN(C)Cc1ccc(Cn2nnc3c(Sc4nc5ccccc5o4)ncnc32)cc1 [Compound 9b, N-(4-((7-(Benzo[d]oxazol-2-ylthio)-3H-[1,2,3]triazolo[4,5-d]pyrimidin-3-yl)methyl)benzyl)-N-methylpropan-1-amine]	
> 100 µM	13.8 ± 2.8 µM	> 100 µM	46.6 ± 9.1 µM		FC1(F)CC2(CCN(Cc3ccc(Cn4nnc5c(Sc6nc7ccccc7o6)ncnc54)cc3)CC2)C1 [Compound 9f, 2-((3-(4-((2,2-Difluoro-7-azaspiro[3.5]nonan-7-yl)methyl)benzyl)-3H-[1,2,3]triazolo[4,5-d]pyrimidin-7-yl)thio)benzo[d]oxazole]	
				41.2 ± 9.7%	C=CC(=O)N1CCC(Nc2ncnc3c2nnn3Cc2ccccc2)CC1 [Compound 7c, 1-(4-((3-Benzyl-3H-[1,2,3]triazolo[4,5-d]pyrimidin-7-yl)amino)piperidin-1-yl)prop-2-en-1-one]	no covalent binding
> 100 µM	1.9 ± 0.2 µM	> 100 µM	2.06 ± 0.96 µM		c1ccc2oc(Sc3ncnc4c3nnn4Cc3ccc(CN4CCOCC4)cc3)nc2c1 [Compound 9e, 2-((3-(4-(Morpholinomethyl)benzyl)-3H-[1,2,3]triazolo[4,5-d]pyrimidin-7-yl)thio)benzo[d]oxazole]	
